Test results from patent publication US10479780B2, “Aminopyrazole derivatives” (Chugai Seiyaku Kabushiki Kaisha, priority 2015, dated 2019).
Like-named read-outs stand apart in the source and are kept apart here.

How the values were obtained:
Assay type in all cases: biochemical
[1] = biological target: T1, human Lck enzyme (Homo sapiens, UniProt P06239); test: Lck enzyme inhibitory activity (time-resolved fluorometry, biotinylated peptide phosphorylation); settings: read-out: LCK_IC50
T1 construct: purchased Carna Biosciences, Inc. 08-170
Method in brief: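 Readout pairs a europium cryptate-labelled anti-phosphotyrosine antibody with XL665-streptavidin, measured by time-resolved fluorescence. IC50 derived from percent inhibition against untreated controls.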

[2] = biological target: T2, human Yes1 enzyme (Homo sapiens, UniProt P07947); test: Yes1 enzyme inhibitory activity (time-resolved fluorometry, biotinylated peptide phosphorylation); settings: read-out: YES_IC50
T2 construct: made in house
Method in brief: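 Inhibition was expressed against a compound-free control to give IC50, using TR-FRET read-out (Eu-cryptate anti-pTyr antibody, streptavidin-XL665).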

[3] = biological target: T3, human Src enzyme (Homo sapiens, UniProt P12931); test: Src enzyme inhibitory activity (time-resolved fluorometry, biotinylated peptide phosphorylation); settings: read-out: SRC_IC50
T3 construct: purchased Carna Biosciences, Inc. 08-173
Method in brief: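 Compounds were tested for blocking tyrosine phosphorylation of a biotinylated peptide substrate by recombinant human Src. Phosphorylated product was quantified by time-resolved fluorometry using europium cryptate and XL665 conjugates, and IC50 was calculated against the compound-free control.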

[4] = biotinylated peptide phosphorylation

T1 sequence (P06239 whole entry): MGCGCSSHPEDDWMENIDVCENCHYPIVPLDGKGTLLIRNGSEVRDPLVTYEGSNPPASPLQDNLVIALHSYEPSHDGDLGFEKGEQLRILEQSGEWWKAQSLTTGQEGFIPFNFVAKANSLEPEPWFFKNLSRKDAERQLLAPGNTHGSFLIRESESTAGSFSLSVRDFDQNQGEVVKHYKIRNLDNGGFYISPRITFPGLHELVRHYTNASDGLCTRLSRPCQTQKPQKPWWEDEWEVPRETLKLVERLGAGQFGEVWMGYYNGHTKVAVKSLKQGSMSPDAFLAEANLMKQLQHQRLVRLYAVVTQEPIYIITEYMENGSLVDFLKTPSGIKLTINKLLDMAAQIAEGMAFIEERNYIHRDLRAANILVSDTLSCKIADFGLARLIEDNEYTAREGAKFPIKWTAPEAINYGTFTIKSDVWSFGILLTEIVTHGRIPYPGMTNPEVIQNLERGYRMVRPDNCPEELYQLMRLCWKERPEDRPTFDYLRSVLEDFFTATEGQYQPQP
T2 sequence (P07947 whole entry): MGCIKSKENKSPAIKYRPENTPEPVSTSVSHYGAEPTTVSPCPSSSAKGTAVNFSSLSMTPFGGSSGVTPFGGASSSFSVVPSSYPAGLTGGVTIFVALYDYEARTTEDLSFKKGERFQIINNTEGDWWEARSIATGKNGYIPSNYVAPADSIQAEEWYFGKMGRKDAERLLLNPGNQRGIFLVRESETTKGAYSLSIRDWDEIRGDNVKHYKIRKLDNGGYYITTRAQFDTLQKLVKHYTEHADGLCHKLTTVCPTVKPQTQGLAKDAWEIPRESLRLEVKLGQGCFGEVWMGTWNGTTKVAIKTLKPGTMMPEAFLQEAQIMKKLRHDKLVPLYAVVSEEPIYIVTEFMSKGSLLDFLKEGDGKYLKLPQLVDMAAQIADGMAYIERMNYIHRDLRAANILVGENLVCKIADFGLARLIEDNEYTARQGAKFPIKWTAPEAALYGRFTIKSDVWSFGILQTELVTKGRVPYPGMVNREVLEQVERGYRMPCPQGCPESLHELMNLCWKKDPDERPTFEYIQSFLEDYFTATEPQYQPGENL
T3 sequence (P12931 whole entry): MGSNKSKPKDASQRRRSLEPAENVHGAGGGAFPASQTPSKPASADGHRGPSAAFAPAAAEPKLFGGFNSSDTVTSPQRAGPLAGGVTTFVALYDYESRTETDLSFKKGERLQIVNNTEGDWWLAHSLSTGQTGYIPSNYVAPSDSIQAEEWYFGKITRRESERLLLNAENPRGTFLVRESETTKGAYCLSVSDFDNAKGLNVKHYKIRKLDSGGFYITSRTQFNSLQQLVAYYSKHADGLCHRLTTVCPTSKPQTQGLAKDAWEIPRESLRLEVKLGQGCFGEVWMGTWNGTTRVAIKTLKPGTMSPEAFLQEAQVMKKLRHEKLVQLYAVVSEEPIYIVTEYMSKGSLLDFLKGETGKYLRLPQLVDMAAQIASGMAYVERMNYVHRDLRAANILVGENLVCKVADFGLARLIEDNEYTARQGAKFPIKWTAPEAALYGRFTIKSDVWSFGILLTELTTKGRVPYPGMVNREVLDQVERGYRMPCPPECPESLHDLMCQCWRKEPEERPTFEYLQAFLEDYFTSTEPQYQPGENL

Compound | IC50 [1] [nM] | IC50 [2] [nM] | IC50 [3] [nM] | IC50 [1, 4] [nM] | IC50 [2, 4] [nM] | IC50 [3, 4] [nM]
Cc1cc2cc(C(=O)c3cnn(-c4ccc(Oc5ccccc5F)cc4C)c3N)[nH]c2cc1N1C(=O)NC2(CCN(Cc3ccccc3)CC2)C1=O [Example 5-1-392, 3-[2-[5-amino-1-[4-(2-fluorophenoxy)-2-methylphenyl]pyrazole-4-carbonyl]-5-methyl-1H-indol-6-yl]-8-benzyl-1,3,8-triazaspiro[4.5] decane-2,4-dione] | 14 | 2.9 | 89 |  |  | 
Cc1cc(Oc2c(F)cccc2F)ncc1-n1ncc(C(=O)c2cc3cc(F)c(N4CCOC4=O)cc3[nH]2)c1N [Example 5-1-097, 3-[2-[5-amino-1-[6-(2,6-difluorophenoxy)-4-methylpyridin-3-yl]pyrazole-4-carbonyl]-5-fluoro-1H-indol-6-yl]-1,3-oxazolidin-2-one] | 1.3 | 1.1 | 8.7 |  |  | 
Cc1cc(Oc2ccccc2F)cc(F)c1-n1ncc(C(=O)c2cc3cc(OC(F)F)c(NC4CN(S(C)(=O)=O)C4)cc3[nH]2)c1N [Example 4-23-024, [5-amino-1-[2-fluoro-4-(2-fluorophenoxy)-6-methylphenyl]pyrazol-4-yl]-[5-(difluoromethoxy)-6-[(1-methylsulfonylazetidin-3-yl)amino]-1H-indol-2-yl]methanone] |  |  |  | 13 | 7.2 | 53
COc1cc2cc(C(=O)c3cnn(-c4cnc(Oc5c(F)cccc5F)cc4C)c3N)[nH]c2cc1NS(C)(=O)=O [Example 4-1-009, N-[2-[5-amino-1-[6-(2,6-difluorophenoxy)-4-methylpyridin-3-yl]pyrazole-4-carbonyl]-5-methoxy-1H-indol-6-yl]methanesulfonamide] |  |  |  | 4.5 | 1.1 | 59
CC(C)N1CCC(c2cc3[nH]c(C(=O)c4cnn(-c5ccc(Oc6cccc(Cl)c6)cc5F)c4N)cc3cc2F)CC1 [Example 5-1-010, [5-amino-1-[4-(3-chlorophenoxy)-2-fluorophenyl]pyrazol-4-yl]-[5-fluoro-6-(1-propan-2-ylpiperidin-4-yl)-1H-indol-2-yl]methanone] | 3.6 | 2.5 | 38 |  |  | 
Cc1cc(Oc2c(F)cccc2F)ncc1-n1ncc(C(=O)c2cc3cc(OCC(F)F)c(NS(=O)(=O)C4CCCC4)cc3[nH]2)c1N [Example 5-1-318, N-[2-[5-amino-1-[6-(2,6-difluorophenoxy)-4-methylpyridin-3-yl]pyrazole-4-carbonyl]-5-(2,2-difluoroethoxy)-1H-indol-6-yl] cyclopentanesulfonamide] | 120 | 10 | 350 |  |  | 
COc1cc2cc(C(=O)c3cnn(-c4ccc(Oc5ccccc5F)cc4C)c3N)[nH]c2cc1N1CCCS1(=O)=O [Example 4-14-002, [5-amino-1-[4-(2-fluorophenoxy)-2-methylphenyl]pyrazol-4-yl]-[6-(1,1-dioxo-1,2-thiazolidin-2-yl)-5-methoxy-1H-indol-2-yl]methanone] |  |  |  | 5.6 | 1.4 | 8.8
Cc1cc(Oc2c(F)cccc2Cl)ncc1-n1ncc(C(=O)c2cc3cc(Cl)c(NS(C)(=O)=O)cc3[nH]2)c1N [Example 4-2-089, N-[2-[5-amino-1-[6-(2-chloro-6-fluorophenoxy)-4-methylpyridin-3-yl]pyrazole-4-carbonyl]-5-chloro-1H-indol-6-yl]methanesulfonamide] |  |  |  | 13 | 2.7 | 180
Cc1cc(Oc2cc(F)cc(F)c2)nc(C)c1-n1ncc(C(=O)c2cc3cc(F)c(NS(C)(=O)=O)cc3[nH]2)c1N [Example 5-1-054, N-[2-[5-amino-1-[6-(3,5-difluorophenoxy)-2,4-dimethylpyridin-3-yl]pyrazole-4-carbonyl]-5-fluoro-1H-indol-6-yl]methanesulfonamide] | 350 | 150 | 1000 |  |  | 
